Species: Rattus norvegicus
Assay: DrugMatrix - Regimen: Daily Repeat
Assay type: toxicity, organism-based, Sprague-Dawley
Design: regimen Daily Repeat, gender Male, age 6-8 weeks
Details: in vivo, po, route oral GAVAGE, vehicle 100 % SALINE
[1] = 0 mg/kg, 72 h, tissue Blood, dose level Control, time 3 day
[2] = 0 mg/kg, 72 h, tissue Plasma, dose level Control, time 3 day
[3] = 0 mg/kg, 120 h, tissue Blood, dose level Control, time 5 day
[4] = 0 mg/kg, 120 h, tissue Plasma, dose level Control, time 5 day
[5] = 200 mg/kg, 72 h, tissue Blood, dose level Low, time 3 day
[6] = 200 mg/kg, 72 h, tissue Plasma, dose level Low, time 3 day

Which “ABSOLUTE BASOPHIL” value [1] does the source give for LEAD(IV) ACETATE here?
Its value is 0 CELLS/uL.

What about the “ABSOLUTE EOSINOPHIL” value [1] of the same substance?
The value was 37 CELLS/uL.

What about the “ABSOLUTE LYMPHOCYTE” value [1] of the same substance?
Its value is 12359.33 CELLS/uL.

And the “ABSOLUTE MONOCYTE” value [1]?
The value was 122.67 CELLS/uL.

And the “ABSOLUTE SEGMENTED NEUTROPHIL” value [1]?
The value was 847.67 CELLS/uL.

And the BASOPHIL [1]?
The BASOPHIL was 0%.

And the EOSINOPHIL [1]?
Its EOSINOPHIL is 0.33%.

What about the “ERYTHROCYTE COUNT” value [1] of the same substance?
Its value is 5.75 x10E6/uL.

And the HEMATOCRIT [1]?
The HEMATOCRIT was 36.08%.

What about the “LEUKOCYTE COUNT” value [1] of the same substance?
Its value is 13.37 x10E3/uL.

And the “MEAN CORPUSCULAR HEMOGLOBIN CONCENTRATION” value [1]?
Its value is 38.98 G/DL.

And the MONOCYTE [1]?
Its MONOCYTE is 1%.

What about the NEUTROPHIL [1] of the same substance?
Its NEUTROPHIL is 6.17%.

What about the “NUCLEATED RED BLOOD CELLS” value [1] of the same substance?
The value was 0.17 /100WBC.

And the “PLATELET COUNT” value [1]?
Its value is 1202.17 x10E3/uL.

And the “ALANINE AMINOTRANSFERASE” value [2]?
Its value is 50.67 u/L.

And the “ALKALINE PHOSPHATASE” value [2]?
The value was 356.33 u/L.

What about the “ASPARTATE AMINOTRANSFERASE” value [2] of the same substance?
Its value is 78.17 u/L.

What about the “BLOOD UREA NITROGEN” value [2] of the same substance?
The value was 14.17 mg/dL.

And the “CARBON DIOXIDE” value [2]?
The value was 31.33 mmol/L.

And the CHLORIDE [2]?
Its CHLORIDE is 98.5 MEQ/L.

And the CHOLESTEROL [2]?
The CHOLESTEROL was 76.5 mg/dL.

What about the “CREATINE PHOSPHOKINASE” value [2] of the same substance?
Its value is 248.33 u/L.

What about the CREATININE [2] of the same substance?
Its CREATININE is 0.2 mg/dL.

And the “LACTATE DEHYDROGENASE” value [2]?
The value was 107 u/L.

And the LIPASE [2]?
Its LIPASE is 9.83 u/L.

And the PHOSPHORUS [2]?
The PHOSPHORUS was 12.8 mg/dL.

What about the POTASSIUM [2] of the same substance?
The POTASSIUM was 6.75 MEQ/L.

What about the “TOTAL BILIRUBIN” value [2] of the same substance?
The value was 0.18 mg/dL.

What about the “TOTAL PROTEIN” value [2] of the same substance?
The value was 5.98 G/DL.

What about the “URIC ACID” value [2] of the same substance?
The value was 1.42 mg/dL.

And the “ABSOLUTE BASOPHIL” value [3]?
Its value is 0 CELLS/uL.

And the “ABSOLUTE EOSINOPHIL” value [3]?
The value was 0 CELLS/uL.

What about the “ABSOLUTE LYMPHOCYTE” value [3] of the same substance?
Its value is 8681.17 CELLS/uL.

And the “ABSOLUTE MONOCYTE” value [3]?
The value was 79.83 CELLS/uL.

And the “ABSOLUTE SEGMENTED NEUTROPHIL” value [3]?
Its value is 689 CELLS/uL.

And the BASOPHIL [3]?
The BASOPHIL was 0%.

And the EOSINOPHIL [3]?
Its EOSINOPHIL is 0%.

And the “ERYTHROCYTE COUNT” value [3]?
The value was 5.49 x10E6/uL.

What about the HEMATOCRIT [3] of the same substance?
The HEMATOCRIT was 33.55%.

And the HEMOGLOBIN [3]?
Its HEMOGLOBIN is 13.1 G/DL.

What about the “LEUKOCYTE COUNT” value [3] of the same substance?
The value was 9.45 x10E3/uL.

And the LYMPHOCYTE [3]?
The LYMPHOCYTE was 92.33%.

What about the “MEAN CORPUSCULAR HEMOGLOBIN” value [3] of the same substance?
The value was 23.92 pg.

And the “MEAN CORPUSCULAR HEMOGLOBIN CONCENTRATION” value [3]?
The value was 39.07 G/DL.

What about the MONOCYTE [3] of the same substance?
Its MONOCYTE is 0.67%.

And the NEUTROPHIL [3]?
The NEUTROPHIL was 7%.

And the “NUCLEATED RED BLOOD CELLS” value [3]?
Its value is 0.17 /100WBC.

And the “PLATELET COUNT” value [3]?
Its value is 1001.17 x10E3/uL.

What about the “ALANINE AMINOTRANSFERASE” value [4] of the same substance?
The value was 49.33 u/L.

What about the “ALKALINE PHOSPHATASE” value [4] of the same substance?
The value was 300.33 u/L.

And the “ASPARTATE AMINOTRANSFERASE” value [4]?
The value was 83.5 u/L.

And the “BLOOD UREA NITROGEN” value [4]?
Its value is 16 mg/dL.

And the CHLORIDE [4]?
The CHLORIDE was 100.5 MEQ/L.

What about the CHOLESTEROL [4] of the same substance?
Its CHOLESTEROL is 74.33 mg/dL.

And the “CREATINE PHOSPHOKINASE” value [4]?
Its value is 489.67 u/L.

What about the CREATININE [4] of the same substance?
The CREATININE was 0.35 mg/dL.

What about the GLUCOSE [4] of the same substance?
The GLUCOSE was 151 mg/dL.

What about the “LACTATE DEHYDROGENASE” value [4] of the same substance?
The value was 133.67 u/L.

And the LIPASE [4]?
The LIPASE was 11.17 u/L.

And the PHOSPHORUS [4]?
The PHOSPHORUS was 10.88 mg/dL.

What about the POTASSIUM [4] of the same substance?
Its POTASSIUM is 5.5 MEQ/L.

What about the SODIUM [4] of the same substance?
The SODIUM was 145.7 MEQ/L.

And the “TOTAL BILIRUBIN” value [4]?
The value was 0.2 mg/dL.

What about the “TOTAL PROTEIN” value [4] of the same substance?
The value was 6.05 G/DL.

And the “URIC ACID” value [4]?
The value was 0.68 mg/dL.

And the “ABSOLUTE BASOPHIL” value [5]?
The value was 0 CELLS/uL.

And the “ABSOLUTE EOSINOPHIL” value [5]?
Its value is 125.67 CELLS/uL.

And the “ABSOLUTE LYMPHOCYTE” value [5]?
Its value is 10005 CELLS/uL.

And the “ABSOLUTE MONOCYTE” value [5]?
The value was 182.33 CELLS/uL.

What about the “ABSOLUTE SEGMENTED NEUTROPHIL” value [5] of the same substance?
The value was 487 CELLS/uL.

And the BASOPHIL [5]?
Its BASOPHIL is 0%.

What about the EOSINOPHIL [5] of the same substance?
The EOSINOPHIL was 1%.

What about the “ERYTHROCYTE COUNT” value [5] of the same substance?
Its value is 5.79 x10E6/uL.

And the HEMATOCRIT [5]?
The HEMATOCRIT was 34.9%.

What about the HEMOGLOBIN [5] of the same substance?
Its HEMOGLOBIN is 13.63 G/DL.

What about the “LEUKOCYTE COUNT” value [5] of the same substance?
The value was 10.8 x10E3/uL.

And the LYMPHOCYTE [5]?
Its LYMPHOCYTE is 92.67%.

What about the “MEAN CORPUSCULAR HEMOGLOBIN” value [5] of the same substance?
The value was 23.53 pg.

What about the “MEAN CORPUSCULAR HEMOGLOBIN CONCENTRATION” value [5] of the same substance?
The value was 39.07 G/DL.

What about the “MEAN CORPUSCULAR VOLUME” value [5] of the same substance?
The value was 60.3 fL.

And the NEUTROPHIL [5]?
Its NEUTROPHIL is 5%.

What about the “NUCLEATED RED BLOOD CELLS” value [5] of the same substance?
Its value is 0 /100WBC.

What about the “PLATELET COUNT” value [5] of the same substance?
Its value is 964.33 x10E3/uL.

And the “ALANINE AMINOTRANSFERASE” value [6]?
The value was 55.67 u/L.

And the “ALKALINE PHOSPHATASE” value [6]?
The value was 341.67 u/L.

And the “ASPARTATE AMINOTRANSFERASE” value [6]?
The value was 108 u/L.

What about the “BLOOD UREA NITROGEN” value [6] of the same substance?
The value was 12.67 mg/dL.

What about the “CARBON DIOXIDE” value [6] of the same substance?
The value was 29.33 mmol/L.

And the CHLORIDE [6]?
The CHLORIDE was 100 MEQ/L.

And the CHOLESTEROL [6]?
The CHOLESTEROL was 73.67 mg/dL.

And the “CREATINE PHOSPHOKINASE” value [6]?
The value was 327.67 u/L.

What about the CREATININE [6] of the same substance?
Its CREATININE is 0.26 mg/dL.

What about the GLUCOSE [6] of the same substance?
The GLUCOSE was 150.33 mg/dL.

And the “LACTATE DEHYDROGENASE” value [6]?
Its value is 126.67 u/L.

What about the LIPASE [6] of the same substance?
The LIPASE was 14.33 u/L.

What about the POTASSIUM [6] of the same substance?
The POTASSIUM was 6.03 MEQ/L.

And the “TOTAL BILIRUBIN” value [6]?
Its value is 0.0667 mg/dL.

What about the “TOTAL PROTEIN” value [6] of the same substance?
The value was 5.93 G/DL.

And the “URIC ACID” value [6]?
Its value is 1.2 mg/dL.

Reference: ChEMBL document CHEMBL3885881, “DrugMatrix”
